This is an account of results in US20250375445A1, “METHODS OF TREATING A RAS PROTEIN-RELATED DISEASE OR DISORDER” (Revolution Medicines, Inc., priority 2024, published 2025).

The subject of series [1] is NCI-H441 KRAS^G12V NSCLC xenograft model. Nature of the series: NCI-H441 xenograft efficacy and tolerability. It counts as in vivo. As to the method:
(§1) All mouse studies and procedures related to animal handling, care and treatment complied with all applicable regulations and guidelines of Institutional Animal Care and Use Committee (IACUC) approvals. Female BALB/c nude mice, 6-8 weeks old were used. Animal vendor was Shanghai Sino-British Sippr/BK Laboratory Animal Co., LTD. NCI-H441 tumor cells (ATCC-HTB-174) was maintained in vitro in RPMI-1640 medium supplemented with 10% heat inactivated FBS, 100 μg/mL streptomycin. Each mouse was inoculated subcutaneously at the right flank with 2×10^6 tumor cells in 0.2 ml media/matrigel for tumor development. Efficacy treatment started when the average tumor size reached 150-200 mm^3 in size, and the single dosed PKPD treatment started when tumor size reached 300-600 mm^3. Mice in the study were weighted and tumors were measured twice weekly.
NCI-H441 is a human lung tumor derived cell line. It harbors a KRAS^G12V mutation. It is typically grown in immune-deficient mice as a xenograft model. An NCI-H441 xenograft study was conducted in female BALB/C Nude mice. Each mouse was inoculated subcutaneously on the right flank with the single cell suspension of tumor cells (2×10^6) in 200 uL with BD Matrigel (1:1 ratio) for tumor development. Tumor width and length were measured with digital calipers, and the tumor volume in mm3 was calculated using the formula: Volume=((width)2×length)/2, where width and length are measured in mm.
Tumor growth inhibition (TGI, %) was calculated as percentage change in tumor volume for each group 100×(Vdayxc−Vdayx)/(Vdayxc−Vdayoc), where Vday0c is the starting mean tumor volume for the vehicle group, and Vdayx and Vdayxc are the corresponding tumor volumes for treatment group and control group on day x, calculated for the duration of the study. Mean tumor regression (where applicable, Vdayx<Vday0x) was calculated using the formula 100×(Vday0x−Vdayx)/Vday0x.
Differences in treatment arms as compared to vehicle controls were assessed by an ordinary one-way ANOVA of tumor volumes along with multiple comparisons via a post-hoc Tukey's test in GraphPad Prism software. Note, in some studies, additional test articles/groups (not reported here) were included and statistical analyses (ANOVA, post-hoc within group comparisons) were conducted on all treatment groups to allow for any interactions. The statistical significance values reported here represent the output of such analyses for RMC-6236 treatment arm.

For series [2], the system named is KRAS MUT (G12C, G12D, G12V). Nature of the series: 2D Cell Viability, 120 hr, KRAS MUT. In kind it is cell-based.
Series [3] concerns the target T1, KRAS WT (Homo sapiens, UniProt P01116+P62937). Nature of the series: RAS-RAF Disruption, KRAS WT. It counts as biochemical.
The test system of the next series is BRAF (V600E). Nature of the series: 2D Cell Viability, 120 hr, BRAF (V600E). It counts as cell-based.
Series [4] relates to KRAS MUT (G12C, G12D, G12V). Nature of the series: Cellular pERK (2D, 4 hr), KRAS MUT. It counts as cell-based.
The nature of series [5]: Oral bioavailability (multiple species). The following applies: in vivo, read-out: Oral % F (multiple species).
Series [6] has as its system RAS WT. Nature of the series: Cellular pERK (2D, 4 hr), RAS WT. In kind it is cell-based.
Another series concerns the target CypA (Homo sapiens, UniProt P62937). Nature of the series: CypA Binding (KD1). The text has this:
The KD1 value of a RAS(ON) multi-selective inhibitor can be determined using methods standard in the art, including but not limited to surface plasmon resonance (SPR), Fluorescence Polarization (FP), or isothermal titration calorimetry (ITC). In a non-limiting example, the binding affinity of compounds for CypA can be assessed by SPR using, for example, a Biacore 8K instrument. CypA is immobilized on a sensor chip (e.g., a streptavidin chip), and varying RAS(ON) multi-selective inhibitor compound concentrations can be flowed over the chip in assay buffer. […] In a specific embodiment, the KD1 of a RAS(ON) multi-selective inhibitor is determined using SPR.
The binding affinity of RAS(ON) multi-selective inhibitor compounds for CypA can also be assessed by FP competition with fluorescein tagged cyclosporine A by varying RAS(ON) multi-selective inhibitor compound concentrations. The signals can be fitted using a concentration response curve and the KD1 is calculated.
In some embodiments, the KD1 value of a RAS(ON) multi-selective inhibitor for CypA can be determined using ITC, a label-free biophysical technique that directly measures the heat released or absorbed during molecular interactions. […] As the inhibitor binds to CypA, the heat of binding is measured after each injection. […]

In series [7] the test system is KRAS MUT (G12C, G12D, G12V). Nature of the series: RAS-RAF Disruption, KRAS MUT. In kind it is biochemical.
Series [8] deals with human DUSP6 in NCI-H441 xenograft tumor. Nature of the series: NCI-H441 xenograft single dose PKPD (exposure, human DUSP6). In kind it is in vivo, mouse. Particulars: single oral dose, NCI-H441 xenograft tumor (FIG. 2). The method, then:
as §1

The subject of series [9] is NRAS MUT (Q61H, Q61K, Q61L, Q61R). Nature of the series: RAS-RAF Disruption, NRAS MUT. It counts as biochemical.
For series [10], the target named is T1, KRAS WT. Nature of the series: KRAS Binding of CypA:TCI (KD2), KRAS WT.
Series [11] deals with RAS WT. Nature of the series: 3D Cell Viability, 120 hr, RAS WT. In kind it is cell-based.
Another series has as its target NRAS WT (Homo sapiens, UniProt P01111+P62937). Nature of the series: RAS-RAF Disruption, NRAS WT. It counts as biochemical.
In another series the target is KRAS MUT (G12D, G12V). Nature of the series: KRAS Binding of CypA:TCI (KD2), KRAS MUT.
For another series, the system named is RAS mutant NSCLC or PDAC. Nature of the series: Phase I study of RMC-6236 (NCT05379985). In kind it is in vivo, human.
Series [12] is described as follows: Tolerability by dosing schedule in preclinical models.
Series [13] in a line: Half-life after oral administration to patients. The following applies: human, in vivo.
The test system of series [14] is Capan-2, KRAS^G12V PDAC CDX model. Nature of the series: Capan-2 xenograft efficacy and tolerability. In kind it is in vivo, mouse. The method, then: Capan-2 is a human pancreatic adenocarcinoma derived cell line. It harbors a KRAS^G12V mutation. It is typically grown in immune-deficient mice as a xenograft model. A Capan-2 xenograft study was conducted in female BALB/C Nude mice. Each mouse was inoculated subcutaneously on the right flank with the single cell suspension of tumor cells (4×10^6) in 100 uL RPMI 1640/Matrigel mixture (1:1 ratio) for tumor development. Tumor width and length were measured with digital calipers, and the tumor volume in mm3 was calculated using the formula: Volume=((width)2×length)/2, where width and length are measured in mm. Tumor growth inhibition (TGI, %) was calculated as percentage change in tumor volume for each group 100×(Vdayxc−Vdayx)/(Vdayxc−Vday0c), where Vday0c is the starting mean tumor volume for the vehicle group, and Vdayx and Vdayxc are the corresponding tumor volumes for treatment group and control group on day x, calculated for the duration of the study. Mean tumor regression (where applicable, Vdayx<Vday0x) was calculated using the formula 100×(Vday0x−Vdayx)/Vday0x.

The mark [15] stands for this setting: 25 mg/kg daily, 50 mg/kg daily, 50 mg/kg Q2D and 100 mg/kg Q2D (FIG. 3).
The mark [16] stands for this setting: patients with RAS mutant NSCLC or PDAC.

T1 sequence (P01116 1-188 isoform P01116-2): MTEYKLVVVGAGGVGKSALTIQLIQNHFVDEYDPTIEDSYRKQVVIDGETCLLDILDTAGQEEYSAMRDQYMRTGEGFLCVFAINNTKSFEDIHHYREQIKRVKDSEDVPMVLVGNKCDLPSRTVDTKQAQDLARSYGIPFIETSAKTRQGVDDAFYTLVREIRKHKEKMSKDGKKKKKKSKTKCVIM
T1 sequence (P62937 whole entry): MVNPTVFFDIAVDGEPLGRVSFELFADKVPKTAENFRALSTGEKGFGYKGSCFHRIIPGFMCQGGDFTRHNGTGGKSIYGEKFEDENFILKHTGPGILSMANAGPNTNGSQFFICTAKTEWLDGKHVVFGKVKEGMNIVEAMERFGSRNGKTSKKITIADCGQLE
NRAS WT, sequence (P01111 whole entry): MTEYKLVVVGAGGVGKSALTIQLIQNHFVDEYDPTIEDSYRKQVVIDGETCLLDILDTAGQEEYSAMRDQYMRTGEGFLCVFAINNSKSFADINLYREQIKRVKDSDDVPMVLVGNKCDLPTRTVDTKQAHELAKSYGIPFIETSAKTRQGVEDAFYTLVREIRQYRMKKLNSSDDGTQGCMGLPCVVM
NRAS WT, sequence (P62937 whole entry): as the sequence (P62937 whole entry) above
CypA, sequence (P62937 whole entry): as above

Consider `CCn1c(-c2cc(N3CCN(C)CC3)cnc2[C@H](C)OC)c2c3cc(ccc31)-c1csc(n1)C[C@H](NC(=O)[C@H](C(C)C)N(C)C(=O)N(C)C)C(=O)N1CCC[C@H](N1)C(=O)OCC(C)(C)C2` (atropisomer, axis not shown) [Compound A], for which, in [1] (setting [15]), the “tolerability (dosing holidays)” value is reported as “all treatment groups require some dosing holidays towards the end”. Moreover, in series [1] (setting [15]), the tumor regression result is “the same tumor regression”. Further, the IC50 in [2] was 0.2 to 1.2 nM; at KRAS WT [3] it was 42 nM; in the series with BRAF (V600E), 1880 nM; in series [4] it was 0.3 to 1 nM; in the series with RAS WT [6], 0.4 nM; in [7], 23 to 165 nM. Besides, the IC50 in series [9] was 18 to 109 nM; with RAS WT [11], 0.4 nM; at NRAS WT, 33 nM. Besides, in series [5], the bioavailability lay within 20 to 38%. Besides, the results for the Kd at CypA and at KRAS WT [10] were 12 nM and 81 nM, respectively. In [8], the “time of maximum DUSP6 suppression post single dose” value (from here on “time”) was 24 h.

On to `CCn1c(-c2cc(N3CCN(C4CC4)CC3)cnc2[C@H](C)OC)c2c3cc(ccc31)-c1csc(n1)C[C@H](CC(=O)[C@H]1[C@@H]3COC[C@@H]31)C(=O)N1CCC[C@H](N1)C(=O)OCC(C)(C)C2` (atropisomer, axis not shown) [RMC-7977], for which the half-inhibitory concentration (IC50) in series [2] is 0.8 to 4.9 nM; against KRAS WT [3], 76 nM; in the series with BRAF (V600E) it was 8360 nM; in series [4], 0.5 to 4.1 nM; in the series on RAS WT [6] it was 1.7 nM; in series [7], 31 to 175 nM. The IC50 in series [9] is 48 to 144 nM; with RAS WT [11] it was 1.9 nM; against NRAS WT it was 57 nM. Besides, the bioavailability in [5] stood at 60%. In addition, the Kd is 216 nM on CypA; 111 to 435 nM at KRAS MUT (G12D, G12V); 116 nM on KRAS WT [10]. For the same compound, the “time” value in series [8] came out at 8 h.

Consider `CCn1c(-c2cc(N3CCN(C)CC3)cnc2[C@H](C)OC)c2c3cc(ccc31)-c1csc(n1)C[C@H](NC(=O)[C@H]1C[C@@H]1C)C(=O)N1CCC[C@H](N1)C(=O)OCC(C)(C)C2` (atropisomer, axis not shown) [RMC-6236, daraxonrasib], for which, in series [1] (25 mg/kg (Q2D) (FIG. 1)), the “decrease in tumor volume” value is “lower decreases in tumor volume”. Moreover, the tumor regression in series [1] (25 mg/kg QD, NCI-H441 model (FIG. 6)) is listed as 88%; in series [1] (100 mg/kg Q2D, NCI-H441 model (FIG. 6)), 89%; in series [1] (100 mpk with increased interval of dosing, NCI-H441 model (FIG. 6)) it was 68%; in series [14] (25 mg/kg QD, Capan-2 (FIG. 7)), 53%; in [14] (35 mg/kg 5on2off, Capan-2 (FIG. 7)), 28%; in series [14] (40 mg/kg 4on3off, Capan-2 (FIG. 7)), 27%. This compound registered a tumor regression in series [14] (50 mg/kg Q2D, Capan-2 (FIG. 7)) of 51%. Further, the “tolerability, body weight” value was “without any significant body weight loss” in series [1] (all doses and regimens of FIG. 6); “without any significant body weight loss” in series [14] (all tested doses and regimens, Capan-2 (FIG. 7)). Also, the tolerability result in series [1] (all regimens of FIG. 4 and FIG. 5) is listed as “tolerated in vivo”. In addition, the IC50 is 1 to 3.1 nM in series [2]; 7210 nM with BRAF (V600E); 0.4 to 3.6 nM in [4]; 1.5 nM with RAS WT [6]; 35 to 229 nM in [7]; 57 to 204 nM in series [9]. The IC50 in the series with RAS WT [11] turned out to be 1.4 nM. Moreover, the “most common treatment-related adverse events (TRAEs)” value in the series with RAS mutant NSCLC or PDAC was “rash and GI-related toxicities”. Also, the antitumor activity entry in the series with RAS mutant NSCLC or PDAC (setting [16]) is “encouraging antitumor activity”. Moreover, the safety profile result with RAS mutant NSCLC or PDAC (setting [16]) is recorded as “acceptable safety profile”. Further, in series [5], the bioavailability fell in the range of 24 to 33%. Also, the “body weight loss and tolerability” value in series [12] (BID dosing) is “more severe body weight loss and intolerability”. The tolerated dose level result in series [12] (Q2D dosing) was “allows higher dose levels to be tolerated”. In series [12] (Q2D dosing at an equivalent dose of QD dosing), the body weight loss result is “slightly improves the body weight loss”. Besides, in series [13], the half-life is around 10 h. Moreover, the “time” value in series [8] was 8 h. Also, in series [14] (all tested doses and regimens, oral administration (FIG. 7)), the tumor growth inhibition result is “Tumor growth inhibition was observed”. The compound also yielded an equilibrium dissociation constant (Kd) on KRAS MUT (G12D, G12V) of 131 to 364 nM.
